Read-outs that look alike come from different tables or passages of the source.
Key:
Assay in all cases: HotSpot kinase profiling
Type in all cases: biochemical
[1] = target: T1, CDC7/DBF4 (Homo sapiens, UniProt O00311)
T1 construct: purchased Reaction Biology Corp
In short: (§1)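 Radiometric kinase assay with P81 filter capture; each kinase was added to fresh substrate plus cofactors in reaction buffer and incubated 2 h at room temperature. Unreacted phosphate was washed off with 0.1% phosphoric acid before detection; percent inhibition is relative to DMSO control, averaged over replicates.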

[2] = target: T2, Aurora A (Homo sapiens, UniProt O14965)
T2 construct: purchased Reaction Biology Corp
T2 sequence (O14965 1-403): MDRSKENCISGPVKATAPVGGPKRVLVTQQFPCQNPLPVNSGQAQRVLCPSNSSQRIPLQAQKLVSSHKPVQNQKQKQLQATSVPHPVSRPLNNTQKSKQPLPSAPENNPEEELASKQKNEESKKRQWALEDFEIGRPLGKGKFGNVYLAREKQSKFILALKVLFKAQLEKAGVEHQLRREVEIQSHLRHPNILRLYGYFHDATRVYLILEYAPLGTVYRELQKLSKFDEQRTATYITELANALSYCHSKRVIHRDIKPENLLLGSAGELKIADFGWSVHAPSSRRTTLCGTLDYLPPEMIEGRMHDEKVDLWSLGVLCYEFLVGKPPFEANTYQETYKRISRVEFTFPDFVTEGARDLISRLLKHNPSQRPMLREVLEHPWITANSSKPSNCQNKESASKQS
In short: as §1

[3] = target: T3, RSK2 (Homo sapiens, UniProt P51812)
T3 construct: purchased Reaction Biology Corp
In short: as §1

[4] = target: T4, PAK3 (Homo sapiens, UniProt O75914)
T4 construct: purchased Reaction Biology Corp
In short: as §1

[5] = target: T5, PAK2 (Homo sapiens, UniProt Q13177)
T5 construct: purchased Reaction Biology Corp
In short: as §1

[6] = target: T6, TAOK2/TAO1 (Homo sapiens, UniProt Q9UL54)
T6 construct: purchased Reaction Biology Corp
T6 sequence (Q9UL54 1-1235): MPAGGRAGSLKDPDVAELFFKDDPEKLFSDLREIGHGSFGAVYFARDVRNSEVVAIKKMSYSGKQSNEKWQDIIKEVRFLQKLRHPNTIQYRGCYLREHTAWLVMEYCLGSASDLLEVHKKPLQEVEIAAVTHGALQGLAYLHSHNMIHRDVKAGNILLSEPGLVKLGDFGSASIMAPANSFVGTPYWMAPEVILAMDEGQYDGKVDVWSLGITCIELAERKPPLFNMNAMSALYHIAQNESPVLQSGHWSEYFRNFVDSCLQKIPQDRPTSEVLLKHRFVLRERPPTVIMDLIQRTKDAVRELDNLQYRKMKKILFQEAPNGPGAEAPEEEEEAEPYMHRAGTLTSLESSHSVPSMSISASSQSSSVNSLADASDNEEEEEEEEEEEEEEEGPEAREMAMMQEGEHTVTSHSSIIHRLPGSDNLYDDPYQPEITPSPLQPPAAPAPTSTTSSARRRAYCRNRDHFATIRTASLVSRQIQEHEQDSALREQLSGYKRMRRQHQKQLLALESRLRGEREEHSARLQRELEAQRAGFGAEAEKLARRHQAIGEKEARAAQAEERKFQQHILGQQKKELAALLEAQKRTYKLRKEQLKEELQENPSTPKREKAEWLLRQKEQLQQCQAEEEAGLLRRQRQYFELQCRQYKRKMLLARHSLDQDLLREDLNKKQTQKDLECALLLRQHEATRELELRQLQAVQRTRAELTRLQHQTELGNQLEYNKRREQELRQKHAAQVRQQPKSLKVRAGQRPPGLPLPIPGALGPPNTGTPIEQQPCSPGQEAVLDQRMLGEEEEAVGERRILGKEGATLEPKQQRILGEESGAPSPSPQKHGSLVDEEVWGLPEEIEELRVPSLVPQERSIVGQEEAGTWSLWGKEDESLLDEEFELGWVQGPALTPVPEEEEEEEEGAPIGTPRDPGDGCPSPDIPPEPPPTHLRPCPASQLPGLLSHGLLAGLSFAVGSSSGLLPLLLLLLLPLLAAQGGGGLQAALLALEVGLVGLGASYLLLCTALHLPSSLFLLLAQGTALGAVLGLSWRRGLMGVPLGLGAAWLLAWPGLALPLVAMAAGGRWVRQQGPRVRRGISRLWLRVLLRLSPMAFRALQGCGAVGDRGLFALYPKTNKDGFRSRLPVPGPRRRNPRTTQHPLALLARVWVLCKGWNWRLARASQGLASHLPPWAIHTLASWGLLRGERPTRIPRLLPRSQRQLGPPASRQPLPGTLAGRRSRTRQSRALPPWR
In short: as §1

[7] = target: T7, PRKX (Homo sapiens, UniProt P51817)
T7 construct: purchased Reaction Biology Corp
T7 sequence (P51817 1-358): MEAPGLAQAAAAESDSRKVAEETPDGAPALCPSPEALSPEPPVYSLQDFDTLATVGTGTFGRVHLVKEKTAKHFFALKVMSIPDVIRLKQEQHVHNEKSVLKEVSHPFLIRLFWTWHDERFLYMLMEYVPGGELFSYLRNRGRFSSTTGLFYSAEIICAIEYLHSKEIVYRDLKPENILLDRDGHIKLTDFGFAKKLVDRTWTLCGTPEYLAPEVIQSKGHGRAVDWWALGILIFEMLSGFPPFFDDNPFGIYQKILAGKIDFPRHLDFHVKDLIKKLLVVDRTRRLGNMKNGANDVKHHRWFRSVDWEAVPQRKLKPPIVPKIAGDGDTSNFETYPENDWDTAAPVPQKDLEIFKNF
In short: as §1

[8] = read-out: % Enzyme Activity (relative to DMSO controls) Run 1
[9] = read-out: % Enzyme Activity (relative to DMSO controls) Run 2

T1 sequence (O00311 whole entry): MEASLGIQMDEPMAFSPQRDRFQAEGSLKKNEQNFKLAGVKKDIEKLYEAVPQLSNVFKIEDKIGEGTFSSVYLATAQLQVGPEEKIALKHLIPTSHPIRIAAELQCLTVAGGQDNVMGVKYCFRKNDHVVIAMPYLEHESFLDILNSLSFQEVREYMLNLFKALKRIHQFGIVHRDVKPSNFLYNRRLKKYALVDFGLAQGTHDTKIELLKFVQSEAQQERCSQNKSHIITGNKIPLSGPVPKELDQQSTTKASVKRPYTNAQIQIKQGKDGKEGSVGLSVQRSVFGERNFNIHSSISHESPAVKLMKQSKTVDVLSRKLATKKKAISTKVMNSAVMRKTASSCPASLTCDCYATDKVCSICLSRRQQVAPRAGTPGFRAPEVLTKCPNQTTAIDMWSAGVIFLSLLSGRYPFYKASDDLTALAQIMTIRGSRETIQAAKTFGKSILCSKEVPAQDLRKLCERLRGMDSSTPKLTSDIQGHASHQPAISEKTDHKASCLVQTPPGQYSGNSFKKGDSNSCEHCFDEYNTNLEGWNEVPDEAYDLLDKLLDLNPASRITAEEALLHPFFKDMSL
T1 sequence (Q9UBU7 whole entry partner): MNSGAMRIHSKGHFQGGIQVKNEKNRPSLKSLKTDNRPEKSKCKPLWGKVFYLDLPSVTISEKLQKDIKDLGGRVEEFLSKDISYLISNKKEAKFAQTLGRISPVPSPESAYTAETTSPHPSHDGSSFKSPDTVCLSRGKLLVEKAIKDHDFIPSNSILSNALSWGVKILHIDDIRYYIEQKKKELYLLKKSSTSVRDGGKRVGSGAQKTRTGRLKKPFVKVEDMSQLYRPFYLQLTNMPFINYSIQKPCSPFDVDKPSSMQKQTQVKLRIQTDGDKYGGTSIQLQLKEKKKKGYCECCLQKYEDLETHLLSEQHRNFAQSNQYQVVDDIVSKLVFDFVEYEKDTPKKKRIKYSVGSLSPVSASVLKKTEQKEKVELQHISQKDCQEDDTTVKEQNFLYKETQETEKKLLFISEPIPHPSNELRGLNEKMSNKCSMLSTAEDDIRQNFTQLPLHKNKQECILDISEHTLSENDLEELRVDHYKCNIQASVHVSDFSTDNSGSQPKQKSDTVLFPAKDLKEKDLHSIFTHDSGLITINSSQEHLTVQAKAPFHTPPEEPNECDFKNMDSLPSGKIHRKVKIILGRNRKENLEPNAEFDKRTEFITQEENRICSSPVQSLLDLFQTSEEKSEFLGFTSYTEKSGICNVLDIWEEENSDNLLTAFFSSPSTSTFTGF
T4 sequence (O75914 whole entry): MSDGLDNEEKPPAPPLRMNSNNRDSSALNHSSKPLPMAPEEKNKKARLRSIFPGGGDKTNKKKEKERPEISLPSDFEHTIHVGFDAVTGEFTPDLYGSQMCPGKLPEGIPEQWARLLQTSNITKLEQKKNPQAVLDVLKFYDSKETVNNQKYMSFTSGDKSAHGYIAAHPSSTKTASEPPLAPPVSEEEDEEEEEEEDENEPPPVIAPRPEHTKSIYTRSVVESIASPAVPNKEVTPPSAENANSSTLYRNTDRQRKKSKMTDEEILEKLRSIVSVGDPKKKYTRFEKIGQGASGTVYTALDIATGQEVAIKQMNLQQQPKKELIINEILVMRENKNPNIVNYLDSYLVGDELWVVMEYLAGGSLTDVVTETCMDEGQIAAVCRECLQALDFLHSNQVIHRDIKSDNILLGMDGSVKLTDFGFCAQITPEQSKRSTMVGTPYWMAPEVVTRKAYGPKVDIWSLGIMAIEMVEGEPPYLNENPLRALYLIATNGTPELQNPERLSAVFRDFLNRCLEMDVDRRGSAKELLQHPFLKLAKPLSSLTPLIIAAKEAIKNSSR
T3 sequence (P51812 whole entry): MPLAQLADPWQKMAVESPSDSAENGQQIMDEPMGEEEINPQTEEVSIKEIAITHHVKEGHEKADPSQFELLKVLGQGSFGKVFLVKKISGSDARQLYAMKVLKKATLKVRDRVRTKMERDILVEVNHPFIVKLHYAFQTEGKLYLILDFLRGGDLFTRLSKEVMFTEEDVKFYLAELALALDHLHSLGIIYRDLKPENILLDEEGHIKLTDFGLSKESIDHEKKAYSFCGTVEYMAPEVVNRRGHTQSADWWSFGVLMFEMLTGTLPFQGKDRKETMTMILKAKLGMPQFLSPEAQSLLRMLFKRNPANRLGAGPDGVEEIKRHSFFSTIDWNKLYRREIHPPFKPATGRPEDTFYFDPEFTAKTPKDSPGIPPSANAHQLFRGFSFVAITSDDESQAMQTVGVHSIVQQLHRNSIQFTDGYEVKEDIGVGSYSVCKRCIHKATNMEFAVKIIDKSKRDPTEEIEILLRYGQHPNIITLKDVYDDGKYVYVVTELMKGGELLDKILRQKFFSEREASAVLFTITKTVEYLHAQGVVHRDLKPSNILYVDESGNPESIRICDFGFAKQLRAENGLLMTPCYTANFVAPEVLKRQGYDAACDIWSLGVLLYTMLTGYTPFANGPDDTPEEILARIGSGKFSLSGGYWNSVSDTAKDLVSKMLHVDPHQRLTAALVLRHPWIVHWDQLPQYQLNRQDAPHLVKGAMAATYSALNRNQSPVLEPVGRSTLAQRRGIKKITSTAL
T5 sequence (Q13177 whole entry): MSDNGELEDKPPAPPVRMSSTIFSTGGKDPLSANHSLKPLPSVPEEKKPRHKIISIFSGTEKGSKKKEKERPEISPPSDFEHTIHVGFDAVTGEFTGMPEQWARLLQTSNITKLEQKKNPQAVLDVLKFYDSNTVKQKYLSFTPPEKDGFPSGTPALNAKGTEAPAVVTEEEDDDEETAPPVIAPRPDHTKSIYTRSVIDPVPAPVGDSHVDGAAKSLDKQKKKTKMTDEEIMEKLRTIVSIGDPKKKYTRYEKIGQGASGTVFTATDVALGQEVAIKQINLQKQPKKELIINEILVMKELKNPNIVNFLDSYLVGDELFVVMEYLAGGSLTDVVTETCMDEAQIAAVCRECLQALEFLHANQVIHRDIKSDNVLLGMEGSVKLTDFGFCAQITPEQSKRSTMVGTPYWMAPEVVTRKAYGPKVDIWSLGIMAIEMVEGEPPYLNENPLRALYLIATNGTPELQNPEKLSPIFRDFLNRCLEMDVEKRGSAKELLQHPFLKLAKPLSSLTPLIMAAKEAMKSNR

## C=CC(=O)Nc1cccc(Nc2nc(Nc3ccc(OCCOC)c(F)c3)ncc2F)c1 [Compound 2]
[1]
  inhibition at 3 µM: -2.02%
[1]; [8]
  remaining activity at 3 µM: 100%
[1]; [9]
  remaining activity at 3 µM: 104%
[2]
  inhibition at 3 µM: 88.3%
[2]; [8]
  remaining activity at 3 µM: 12.3%
[2]; [9]
  remaining activity at 3 µM: 11%
[3]
  inhibition at 3 µM: 16.6%
[3]; [8]
  remaining activity at 3 µM: 82.6%
[3]; [9]
  remaining activity at 3 µM: 84.3%
[4]
  inhibition at 3 µM: 6.46%
[4]; [8]
  remaining activity at 3 µM: 91.9%
[4]; [9]
  remaining activity at 3 µM: 95.2%
[5]
  inhibition at 3 µM: 4.8%
[5]; [8]
  remaining activity at 3 µM: 95.5%
[5]; [9]
  remaining activity at 3 µM: 94.9%
[6]
  inhibition at 3 µM: 3.53%
[6]; [8]
  remaining activity at 3 µM: 98.5%
[6]; [9]
  remaining activity at 3 µM: 94.4%
[7]
  inhibition at 3 µM: 1.8%
[7]; [8]
  remaining activity at 3 µM: 97.9%
[7]; [9]
  remaining activity at 3 µM: 98.5%

— US9492471B2, “Methods of treating a disease or disorder associated with Bruton'S Tyrosine Kinase” (Celgene Avilomics Research, Inc., priority 2013, dated 2016)
